The values that follow come from patent US11357809B2, “Herbal preparation for stimulation of hair growth, control of hair fall, dandruff and infections thereof using Ageratum spp” (GE Nutrients, Inc., priority 2019, dated 2022).

Several values for one entry are separate records, joined by “and”; a condition that tells them apart may be missing. Identical values can stand only once.

One data set has as its system 5-alpha-reductase enzyme. The conditions noted are these: constituents of Ageratum spp. extracts; no test described; cited from earlier work.
The next data set deals with bovine corneas. The data set is described as follows: Bovine Corneal Opacity and Permeability assay (ocular irritation). An excerpt: SUMMARY: This test was designed to assess the ocular irritation potential of a non-surfactant, liquid article such as Ageratum conyzoides extract. The test is a modification of that described by Gautheron, et. al. (“Bovine Corneal Opacity and Permeability Test: An In Vitro Assay of Ocular Irritancy” Fund. Appl. Toxicol. 18:442-449 (1992)), and Vanparys, et al. (“Evaluation of the bovine opacity-permeability assay as an in vitro alternative to the Draize eye irritation test” Toxicol. In Vitro 7:471-76 (1994)).
Bovine eyes were obtained by this facility from a local abattoir. The eyes were transported in an appropriate container containing Hank's balanced salt solution (HBSS, Sigma Chemical Co., H-1387). Transportation and storage of the eyes was at approximately 21° C. (70° F.). The eyes were used the day of their harvest and transport.
Upon test initiation, the iris and the lens were removed and the corneas were placed in the bovine cornea holders. The endothelial surface was applied to the O-ring of the posterior part of the holder. The anterior part of the holder was placed against the epithelial side of the cornea. The two sides of the holder were screwed together. The bovine holders' components were then filled with pre-warmed Eagle's Minimum Essential Media (EM EM, Sigma Chemical Co., M-3024) with 1% Fetal Bovine Serum (FBS, American Type Culture Collection) at approximately 32° C.±2° C. (90° F.±4° F.). The posterior chamber was filled first. The corneas were incubated for approximately one hour, in a 32° C.±2° C. (90° F.±4° F.) water bath. This allowed for the pre-equilibration of the corneas to the external medium.
After the pre-equilibration period, media from both of the chamber of the cassettes was aspirated, with the anterior chamber being aspirated first. Each chamber was then refilled with fresh EMEM, with the posterior chamber being filled first. Initial opacity readings were taken and recorded. Corneas with initial readings greater than […] were not used. Three corneas were assigned to each test and control article. The corneas with the lowest readings were used as the negative controls.
The test article and the positive control article (ethanol) and the negative control article (physiological saline) were each tested at 100%.
A volume of 0.75 milliliters of the appropriate article, pre-warmed to 32° C.±2° C. (90° F.±4° F.), was introduced into the anterior chamber of the appropriate cassettes. The anterior chambers were then plugged and turned to a horizontal position. They were then rotated slightly, so that the article uniformly covered each cornea. The cassettes were incubated for 10 minutes at 32° C.±2° C. (90° F.±4° F.), in a water bath.
The anterior chambers of each cassette were then refilled with fresh EMEM via syringe. After refilling, the chambers were again plugged. All corneas were then incubated for 2 hours at approximately 32° C.±2° C. (90° F.±4° F.), in a water bath.
After this 2 hour incubation period, all compartments were emptied and refilled with fresh EMEM. Each holder was individually placed in the “positive” compartment, while the “negative” compartment was left empty. The glass portion of each holder was dried prior to the reading. The opacity of each cornea was taken and recorded. The corneas were also observed grossly. Any unusual findings, such as opaque spots, were recorded.
After the opacity readings were completed, the medium was removed from the anterior chambers. Either a suitable pipette tip or a flat ended needle was used for this procedure. One milliliter of 6 mg/ml fluorescein (Sodium Fluorescein, Sigma-Aldrich, F-637 in Dulbecco's Phosphate Buffered Saline (DPBS Sigma-Aldrich) pH approximately 7.5) solution was added to each of the anterior chambers. A micro pipette was used for this procedure.
After the fluorescein solution was added to each anterior compartment, the compartments were plugged. The cassettes were then incubated, in a horizontal position, for 90 minutes at 32° C.±2° C.

Setting [1] is: individual cornea, negative control average subtracted.
Where [2] appears, read: mean of three corneas, article at 100%.

For the compound `CCCCC/C=C\C/C=C\CCCCCCCC(=O)O` [9,12-octadecadienoic acid (Z,Z)-], in the data set with 5-alpha-reductase enzyme, the “identified as 5-alpha-reductase inhibitor” value is listed as 5-alpha-reductase inhibitors.
Consider `CCO` [+Control, Ethanol], for which, in the data set on bovine corneas (individual cornea, article at 100%), the “Difference (terminal minus initial opacity)” value was 51 and 45 and 54. The “Terminal Opacity” value in the data set with bovine corneas (individual cornea, article at 100%, 10 minute exposure, 2 hour incubation) is 56 and 46 and 55. For the same compound, the “Initial Opacity” value in the data set with bovine corneas (individual cornea, baseline reading before exposure) was 2 and 1 (2×). Moreover, the “Optical Density490” value with bovine corneas (individual cornea, fluorescein permeability, 90 minutes) is 1.239 and 0.662 and 1.663. Moreover, in the data set with bovine corneas (setting [1]), the “Corrected Corneal Opacity” value was 48.3 and 42.3 and 51.3; the “Corrected OD490” value is 1.233 and 0.656 and 1.657. For the same compound, in the data set with bovine corneas (individual cornea, Corrected Corneal Opacity + 15 x Corrected OD490), the “In Vitro Score” value is 65.8 and 52.5 and 76.2. Also, the “Mean Corrected OD490” value with bovine corneas (mean of three corneas) is recorded as 1.182. Also, in the data set with bovine corneas (setting [2]), the “Average In Vitro Score” value was 65.0 and the “Mean Corrected Corneal Opacity” value came out at 47.3.
In the case of `CC/C=C\C/C=C\C/C=C\CCCCCCCC(=O)O` [Alpha-linolenic acid], the “identified as 5-alpha-reductase inhibitor” value in the data set with 5-alpha-reductase enzyme is on record as 5-alpha-reductase inhibitors.
With `CCCCCCCCCCCCCCCC(=O)O` [Hexadecanoic acid], the “identified as 5-alpha-reductase inhibitor” value in the data set on 5-alpha-reductase enzyme is 5-alpha-reductase inhibitors.
With `O=C1CCc2ccccc2O1` [Hydrocoumarin], the “identified as 5-alpha-reductase inhibitor” value in the data set on 5-alpha-reductase enzyme is given as 5-alpha-reductase inhibitors.
